Measured values from patent publication US20250092014A1, “COMPOUNDS AND METHODS OF ACTIVATING LIPOPROTEIN LIPASE” (Metrea Biosciences, Inc., priority 2021, published 2025).

How the values were obtained:
[1] = molecular target: T1, LPL (native bovine milk protein) inactivated by ANGPTL4 (Bos taurus, UniProt P11151); experiment: LPL ANGPTL4 protection assay (LPL fluorescence assay, resorufin butyrate substrate); type: biochemical; conditions: LPL activation activity, LPL 2.5 nM, ANGPTL4 20 nM
T1 construct: from tissue; host or cells: bovine milk (LPL); E. coli (GST-ANGPTL4)
T1 sequence (P11151 29-478): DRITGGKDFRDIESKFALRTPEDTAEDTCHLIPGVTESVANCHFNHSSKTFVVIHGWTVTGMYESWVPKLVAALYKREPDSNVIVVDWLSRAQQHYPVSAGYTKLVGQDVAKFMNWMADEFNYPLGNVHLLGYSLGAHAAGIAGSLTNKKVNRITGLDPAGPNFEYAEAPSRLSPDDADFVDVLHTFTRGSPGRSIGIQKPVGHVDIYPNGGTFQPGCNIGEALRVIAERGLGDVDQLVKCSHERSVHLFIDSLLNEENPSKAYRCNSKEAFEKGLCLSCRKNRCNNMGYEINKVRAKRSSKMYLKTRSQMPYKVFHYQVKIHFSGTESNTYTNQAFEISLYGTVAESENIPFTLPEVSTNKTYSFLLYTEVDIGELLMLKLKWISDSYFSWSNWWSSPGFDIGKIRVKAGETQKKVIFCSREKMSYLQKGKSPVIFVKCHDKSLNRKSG
Method: LPL is inactivated by angiopoietin-like 4 (ANGPTL4). Compounds of the present disclosure were for activity using the following protection assay. Briefly, the assay was performed in a black opaque 96-well microtiter plate with final volume of 100 μL using a buffer consisting of 50 mM HEPES (pH 7.2), 150 mM NaCl and 0.03% Triton X-100. Compounds were prepared as 10 mM stocks in DMSO, with subsequent serial dilutions performed in DMSO. Two microliters of test compounds were added to the microtiter plate, followed by 49-PL of LPL (native bovine milk protein affinity purified using heparin-affinity chromatography) in assay buffer. The plate contents were mixed using an orbital shaker and allowed to incubate for 5 minutes at room temperature. The enzymatic assay was initiated by the addition of a mixture of 49 μL of 50 μM resorufin butyrate (Santa Cruz #sc-208302; prepared from a 10 mM DMSO stock) and ANGPTL4 (N-terminal GST construct consisting of residues 26-164 expressed in E. coli) in assay buffer. The final concentrations of LPL and ANGPTL4 were 2.5 nM and 20 nM, respectively. The assay was allowed to proceed at 30° C. for 25 minutes with kinetic monitoring (Ex560/Em585) followed by an endpoint reading which was used for analysis.
Data was analyzed in Graphpad Prism (version 6.0, GraphPad Software, Inc., San Diego, CA) using a variable slope four parameter fit of the equation:
Y=Bottom+(Top-Bottom)/(1+10^((Log EC50−X)*HillSlope)),
where X is the concentration of test compound, Y corresponds to the amount of product expressed in relative fluorescence units, and Top and Bottom refer to the plateaus of the curve. Percent activation (protection) of test compound was calculated relative to zero effect wells (ZEW; LPL, ANGPTL4 and substrate) and maximum effect wells (MEW; LPL plus substrate): ((test well−ZEW)/(MEW−ZEW))*100.

[2] = tested on: C57BL/6 mice; experiment: Oral fat tolerance test (postprandial triglyceridaemia after olive oil bolus); type: in vivo; conditions: overnight-fasted C57BL/6 mice, compound IP 1 h before 10 mL/kg olive oil, bled at 1, 2 and 3.5 h
Method: To examine to effects of test compounds on postprandial triglycerdemia, 5-7 week old C57BL/6 mice were fasted overnight (18 hours) on non-nutritive bedding (Alpha-Dri). Following the overnight fast, the mice are bled via retro-orbital sinus (25 μL) using microcapillaries (t-1 hr sample). The LPL activator test compound was then administered intraperitoneally (IP) in a dose volume of 10 ml/kg. One hour later the mice were bled for the t=0 timepoint. The mice were then immediately dosed with a 10 mL/kg oral bolus of olive oil. The mice were subsequently bled at 1-, 2-, and 3.5-hours post-olive oil administration.
Whole blood samples were collected into tubes containing 0.125% EDTA solution in saline. Diluted plasma samples were analyzed for triglyceride levels using Infinity Triglyceride reagent (Thermo) on a microtiter plate. Briefly, 10 μL of diluted sample was added the plate. 200 μL of the reagent was added and the plate was incubated for 10 minutes at 37° C. The plate was then read at 550 nm on a Molecular Devices M5 Spectrophotometer (San Jose, CA). The concentration of triglycerides in the sample was determined using a standard curve made using a dilution of triglyceride standard (Sigma-Aldrich, St. Louis, MO) using the Softmax software from Molecular Devices. All graphing and subsequent area under-the-curve and statistical analysis (Student's t Test) is performed using GraphPad Prism (version 8.0, GraphPad Software, Inc., San Diego, CA).

| EC50 [1] | SMILES | hypertriglyceridemia response to oral olive oil gavage (plasma triglycerides) [2] |
| --- | --- | --- |
| 3.99 µM | Cn1nc(C(=O)Nc2cc(C(=O)Nc3ccccc3CC(=O)O)ccc2N2CCCCC2)c2ccccc21 [Compound 174, 2-(2-(3-(1-methyl-1H-indazole-3-carboxamido)-4-(piperidin-1-yl)benzamido)phenyl)acetic acid] | blunts hypertriglyceridemia response in a dose-dependent fashion |
| 5.85 µM | Cn1c(C(=O)Nc2cc(C(=O)Nc3ccccc3CC(=O)O)ccc2N2CCCCC2)cc2ccccc21 [Compound 173, 2-(2-(3-(1-methyl-1H-indole-2-carboxamido)-4-(piperidin-1-yl)benzamido)phenyl)acetic acid] | blunts hypertriglyceridemia response in a dose-dependent fashion |
